Experimental data taken from paper PMC9069370, “Integrated Design of a Membrane‐Lytic Peptide‐Based Intravenous Nanotherapeutic Suppresses Triple‐Negative Breast Cancer” (Advanced Science, 2022).
Peptide text beside a SMILES is read from it.

What was measured:
HMLER‐shEcad = experiment: cells; format: cell-based, human; settings: 72 h
Source text: (§1) […], and MCF-10A cells were maintained in MEGM with supplements and growth factors bovine pituitary extract, hydrocortisone, human epidermal growth factor, insulin, and gentamicin/amphotericin-B.

U2OS = format: cell-based, human; settings: 72 h
HEK293T = experiment: cells; format: cell-based, human; settings: 72 h
[1] = test system: HMLER‐shEcad tumorspheres; experiment: cells; format: cell-based, human; settings: 16 h
[2] = Tryptophan fluorescent binding assay; settings: tryptophan fluorescence; 50 µM peptide, lipid titrated 0-5000 µM; phosphate buffered saline 1X, pH 7.4; values as lipid per peptide
In short: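 Tryptophan fluorescence was used to follow binding of peptide, fixed at 50 µM, to large unilamellar vesicles of POPC:POPG (3:1 ratio) titrated into phosphate buffered saline (1X, pH 7.4). After 1 h incubation, spectra were taken on a BioTek Cytation 5 reader with excitation at 280 nm and emission at 300 to 450 nm (9 nm slits), averaging three scans.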

[3] = ANTS/DPX liposome leakage assay; settings: for Peptide Concentration-induced 50 % ANTS/DPX leakage at pH 4.8 (L/P), 3POPC/1POPG Vesicle / Peptide Concentration-induced 50 % ANTS/DPX leakage at pH 4.8 (L/P), POPC Vesicle / Peptide Concentration-induced 50 % ANTS/DPX leakage at pH 7.4 (L/P), 3POPC/1POPG Vesicle / Peptide Concentration-induced 50 % ANTS/DPX leakage at pH 7.4 (L/P), POPC Vesicle: 0.5 mM vesicles, peptide 0-20 µM, 3 h incubation, lipid per peptide; for Peptide Concentration-induced 50 % ANTS/DPX leakage at pH 4.8 (L/P), 3POPC/1POPG Vesicle / Peptide Concentration-induced 50 % ANTS/DPX leakage at pH 4.8 (L/P), POPC Vesicle: HCl-adjusted PBS 1X pH 4.8; for Peptide Concentration-induced 50 % ANTS/DPX leakage at pH 7.4 (L/P), 3POPC/1POPG Vesicle / Peptide Concentration-induced 50 % ANTS/DPX leakage at pH 7.4 (L/P), POPC Vesicle: PBS 1X pH 7.4, high ratio = more potent
In short: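 Extruded 0.1 µm POPC or POPC/POPG (3:1) vesicles were loaded with 5 mM ANTS and 12.5 mM DPX, gel-filtered, then used at 0.5 mM lipid with titrated peptide at pH 7.4 or pH 4.8 (acidified PBS). Leakage was read at ex 350/em 510 nm after 3 h against 10% Triton maximum, expressed as lipid/peptide ratio for 50% leakage.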

HMLER = experiment: cells; format: cell-based, human; settings: 72 h
Source text: as §1

MCF‐10A = experiment: cells; format: cell-based, human; settings: 72 h
Source text: as §1

IC50 (HMLER‐shEcad) [µM]	IC50 (U2OS) [µM]	IC50 [1] [µM]	IC90 [1] [µM]	Lipid Concentration-induced 50% Peptide Binding (L/P), 3POPC/1POPG Vesicle [2] [L/P]	Lipid Concentration-induced 50% Peptide Binding (L/P), POPC Vesicle [2] [L/P]	IC50 (HMLER) [µM]	IC50 (MCF‐10A) [µM]	SMILES	IC50 (HEK293T) [µM]	Peptide Concentration-induced 50 % ANTS/DPX leakage at pH 4.8 (L/P), 3POPC/1POPG Vesicle [3] [L/P]	Peptide Concentration-induced 50 % ANTS/DPX leakage at pH 4.8 (L/P), POPC Vesicle [3] [L/P]	Peptide Concentration-induced 50 % ANTS/DPX leakage at pH 7.4 (L/P), 3POPC/1POPG Vesicle [3] [L/P]	Peptide Concentration-induced 50 % ANTS/DPX leakage at pH 7.4 (L/P), POPC Vesicle [3] [L/P]	change of ANTS/DPX dye leakage / liposome selectivity at pH 4.8 ([3]; pH = 4.8 compared with physiological pH, anionic versus neutral liposomes)
0.7 ± 0.07	19.9 ± 2.65	12 ± 2	22 ± 2	1.67	1.50			CC(C)C[C@H](NC(=O)CN)C(=O)N[C@@H](CC(C)C)C(=O)N[C@@H](CC(=O)O)C(=O)N[C@@H](CC(C)C)C(=O)N[C@@H](CC(C)C)C(=O)N[C@@H](CCC(=O)O)C(=O)N[C@@H](CC(C)C)C(=O)N[C@@H](CC(C)C)C(=O)N[C@@H](CC(C)C)C(=O)N[C@@H](CCCCN)C(=O)N[C@@H](C)C(=O)N[C@@H](C)C(=O)NCC(=O)N[C@@H](Cc1c[nH]c2ccccc12)C(N)=O [DEK] (H-GLLDLLELLLKAAGW-NH2)	6.8 ± 0.85	469	10	773	747	significantly increased dye leakage from anionic liposomes
1.35 ± 0.4	9.65 ± 1.2			1.70	1.25	1.57 ± 0.24	1.37 ± 0.24	CC(C)C[C@H](NC(=O)CN)C(=O)N[C@@H](CC(C)C)C(=O)N[C@@H](CCCCN)C(=O)N[C@@H](CC(C)C)C(=O)N[C@@H](CC(C)C)C(=O)N[C@@H](CCCCN)C(=O)N[C@@H](CC(C)C)C(=O)N[C@@H](CC(C)C)C(=O)N[C@@H](CC(C)C)C(=O)N[C@@H](CCCCN)C(=O)N[C@@H](C)C(=O)N[C@@H](C)C(=O)NCC(=O)N[C@@H](Cc1c[nH]c2ccccc12)C(N)=O [KKK] (H-GLLKLLKLLLKAAGW-NH2)	3.7 ± 0.14	81	156	115	1369	
